Drawing on patent US20030004172A1, “Fused pyrimidinone matrix metalloproteinase inhibitors” (priority 2001, published 2003), this text covers IC50 for 3 compounds.

Common to all, as to format: biochemical
The target in assay [1] is MMP-13CD (catalytic domain of collagenase-3) (Homo sapiens, UniProt P45452). The assay can be described thus: Thiopeptolide substrate hydrolysis inhibition assay, MMP-13CD. The source says: (§1) Thiopeptolide substrates show virtually no decomposition or hydrolysis at or below neutral pH in the absence of a matrix metalloproteinase enzyme.
Assay [2] deals with T1, MMP-1FL (full-length interstitial collagenase) (Homo sapiens, UniProt P03956).
T1 sequence (P03956 100-469): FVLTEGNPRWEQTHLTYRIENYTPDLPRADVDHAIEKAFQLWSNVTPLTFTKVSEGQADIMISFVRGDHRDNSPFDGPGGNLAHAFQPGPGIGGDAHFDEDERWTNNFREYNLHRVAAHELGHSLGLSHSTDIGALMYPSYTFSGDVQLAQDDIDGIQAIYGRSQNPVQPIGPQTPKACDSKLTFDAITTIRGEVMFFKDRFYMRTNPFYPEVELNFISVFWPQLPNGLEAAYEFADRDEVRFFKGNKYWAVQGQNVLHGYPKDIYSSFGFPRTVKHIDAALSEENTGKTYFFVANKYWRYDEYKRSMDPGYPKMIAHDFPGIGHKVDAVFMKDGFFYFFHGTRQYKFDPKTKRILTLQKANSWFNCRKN
As to the kind of experiment: Thiopeptolide substrate hydrolysis inhibition assay, MMP-1FL. Particulars: Table II; micromolar concentration; HEPES pH 7.0.
From the text: as §1

The target of assay [3] is T2, MMP-2FL (full length Gelatinase A) (Homo sapiens, UniProt P08253).
T2 sequence (P08253 110-660): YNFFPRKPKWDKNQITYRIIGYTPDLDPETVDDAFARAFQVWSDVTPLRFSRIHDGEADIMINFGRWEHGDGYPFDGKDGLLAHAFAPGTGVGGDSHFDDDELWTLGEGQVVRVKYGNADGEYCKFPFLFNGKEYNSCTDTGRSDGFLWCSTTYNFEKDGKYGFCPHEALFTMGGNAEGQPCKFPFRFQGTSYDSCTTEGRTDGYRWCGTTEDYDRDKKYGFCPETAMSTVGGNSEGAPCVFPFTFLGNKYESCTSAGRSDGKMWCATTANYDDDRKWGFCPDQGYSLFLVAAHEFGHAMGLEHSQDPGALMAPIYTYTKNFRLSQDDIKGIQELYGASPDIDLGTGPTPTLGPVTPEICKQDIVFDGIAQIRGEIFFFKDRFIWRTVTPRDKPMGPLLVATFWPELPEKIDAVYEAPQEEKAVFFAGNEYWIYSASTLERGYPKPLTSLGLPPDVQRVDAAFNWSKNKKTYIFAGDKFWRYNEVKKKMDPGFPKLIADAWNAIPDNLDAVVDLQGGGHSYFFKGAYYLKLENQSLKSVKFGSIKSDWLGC
The assay can be described thus: Thiopeptolide substrate hydrolysis inhibition assay, MMP-2FL. Particulars: Table II; micromolar concentration; HEPES pH 7.0.
From the text: as §1

Assay [4] addresses MMP-3CD (catalytic domain of stromelysin-1) (Homo sapiens, UniProt P08254). As to the kind of experiment: Thiopeptolide substrate hydrolysis inhibition assay, MMP-3CD. Particulars: Table II; micromolar concentration; MES buffer pH 6.0. The procedure: as §1
It should be appreciated that the assay buffer used with MMP-3CD is 50 mM N-morpholinoethanesulfonate (“MES”) at pH 6.0 rather than the HEPES buffer at pH 7.0 described above.

Assay [5] deals with T3, MMP-7FL (full-length matrilysin) (Homo sapiens, UniProt P09237).
T3 sequence (P09237 95-267): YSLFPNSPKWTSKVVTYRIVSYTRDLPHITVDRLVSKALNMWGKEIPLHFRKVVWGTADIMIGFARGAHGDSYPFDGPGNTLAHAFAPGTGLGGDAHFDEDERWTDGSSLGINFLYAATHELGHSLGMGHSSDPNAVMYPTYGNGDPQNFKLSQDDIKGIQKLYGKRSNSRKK
The assay can be described thus: Thiopeptolide substrate hydrolysis inhibition assay, MMP-7FL. Particulars: Table II; micromolar concentration; HEPES pH 7.0.
From the text: as §1

For assay [6], the target named is MMP-9FL (full-length Gelatinase B) (Homo sapiens, UniProt P14780). The assay can be described thus: Thiopeptolide substrate hydrolysis inhibition assay, MMP-9FL. Particulars: Table II; micromolar concentration; HEPES pH 7.0.
Sequence of MMP-9FL (full-length Gelatinase B) (P14780 94-707, species assumed): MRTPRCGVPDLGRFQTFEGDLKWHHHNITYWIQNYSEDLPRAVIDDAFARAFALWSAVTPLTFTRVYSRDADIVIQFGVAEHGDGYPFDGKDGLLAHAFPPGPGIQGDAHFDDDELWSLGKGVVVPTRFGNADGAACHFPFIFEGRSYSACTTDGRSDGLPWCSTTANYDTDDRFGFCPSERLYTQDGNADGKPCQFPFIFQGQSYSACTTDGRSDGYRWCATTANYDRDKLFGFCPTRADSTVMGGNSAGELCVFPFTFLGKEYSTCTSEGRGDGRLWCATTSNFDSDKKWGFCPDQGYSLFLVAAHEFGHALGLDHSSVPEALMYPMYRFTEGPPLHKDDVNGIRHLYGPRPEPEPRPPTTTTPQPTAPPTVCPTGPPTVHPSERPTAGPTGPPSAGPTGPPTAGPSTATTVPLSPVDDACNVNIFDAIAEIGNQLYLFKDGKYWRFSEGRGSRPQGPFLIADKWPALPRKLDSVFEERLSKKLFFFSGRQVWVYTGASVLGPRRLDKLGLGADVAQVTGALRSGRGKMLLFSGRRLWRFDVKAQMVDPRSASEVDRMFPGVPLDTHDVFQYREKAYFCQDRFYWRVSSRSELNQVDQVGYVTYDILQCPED
From the text: as §1

In a further assay the target is T4, MMP-12CD (Homo sapiens, UniProt P39900).
T4 construct: 12CD
T4 sequence (P39900 106-263 limits assumed): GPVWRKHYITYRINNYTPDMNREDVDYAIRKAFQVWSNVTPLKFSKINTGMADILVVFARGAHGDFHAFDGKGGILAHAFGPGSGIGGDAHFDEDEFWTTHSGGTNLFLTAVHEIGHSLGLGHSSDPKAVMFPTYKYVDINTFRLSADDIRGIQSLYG
The assay can be described thus: Thiopeptolide substrate hydrolysis inhibition assay, MMP-12CD. Particulars: Table II; micromolar concentration; HEPES pH 7.0.
From the text: as §1

For assay [7], the target named is MMP-14CD (catalytic domain of MMP-14) (Homo sapiens, UniProt P50281). As to the kind of experiment: Thiopeptolide substrate hydrolysis inhibition assay, MMP-14CD. Particulars: Table II; micromolar concentration; HEPES pH 7.0.
From the text: as §1

Where [8] appears, read: Table I, thiopeptolide substrate, HEPES pH 7.0, 22° C., read-out: MMP-13CD IC50.
Where [9] appears, read: Table II, micromolar concentration, HEPES pH 7.0, read-out: IC50 MMP-13CD.

Read-outs that look alike come from different tables or passages of the source.

Sequence of MMP-3CD (catalytic domain of stromelysin-1) (P08254 100-272 limits assumed): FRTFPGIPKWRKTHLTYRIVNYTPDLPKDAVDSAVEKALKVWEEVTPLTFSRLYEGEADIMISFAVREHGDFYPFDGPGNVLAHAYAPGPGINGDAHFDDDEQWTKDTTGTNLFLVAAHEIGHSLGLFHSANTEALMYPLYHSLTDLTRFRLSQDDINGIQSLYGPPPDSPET

A word on the IC50: it is the concentration that gives 50% inhibition. Turning to `COc1ccc(CNC(=O)c2cc3c(=O)n(Cc4cccc(OC)c4)c(=O)n(C)c3s2)cc1` [Example 63, 3-(3-Methoxy-benzyl)-1-methyl-2,4-dioxo-1,2,3,4-tetrahydro-thieno[2,3-d]pyrimidine-6-carboxylic acid 4-methoxy-benzylamide], the IC50 was determined as 0.11 µM in assay [1] (setting [8]); 0.11 µM in assay [1] (setting [9]); 30 µM in assay [2]; 30 µM in assay [3]; 18 µM in assay [4]; 30 µM in assay [5]. For the same compound, the IC50 (in assay [6]; against MMP-12CD; in assay [7]) was 30 µM throughout.

For `COC(=O)c1ccc(Cn2c(=O)c3cc(C(=O)NCc4ccc(OC)cc4)sc3n(C)c2=O)cc1OC` [Example 228, 2-Methoxy-4-[6-(4-methoxy-benzylcarbamoyl)-1-methyl-2,4-dioxo-1,4-dihydro-2H-thieno[2,3-d]pyrimidin-3-ylmethyl]-benzoic acid methyl ester], the IC50 in assay [1] (setting [8]) is 0.435 µM; in assay [1] (setting [9]), 0.435 µM; in assay [2], 30 µM; in assay [3], 30 µM; in assay [4] it was 15 µM; in assay [5], 10 µM. The IC50 (in assay [6]; on MMP-12CD; in assay [7]) was 30 µM throughout.

Regarding `COc1ccc(CNC(=O)c2cc3c(=O)n(CCOc4ccc(Br)cc4)c(=O)n(C)c3s2)cc1` [Example 232, 3-[2-(4-Bromo-phenoxy)-ethyl]-1-methyl-2,4-dioxo-1,2,3,4-tetrahydro-thieno[2,3-d]pyrimidine-6-carboxylic acid 4-methoxy-benzylamide], the IC50 is 0.175 µM in assay [1] (setting [8]); 0.18 µM in assay [1] (setting [9]); 30 µM in assay [2]; 30 µM in assay [3]; 17 µM in assay [4]; 30 µM in assay [5]. The IC50 (in assay [6]; against MMP-12CD; in assay [7]) was 30 µM in each case.
